For four molecules, IC50 results are on record in patent US20230183292A1, “IMMUNOMODULATORS” (priority 2020, published 2023).

Each structure is given as a SMILES string. Starred links: 1 amine or outer side, 2 acyl side, 3 side chain; linkers in the order of their positions; H or OH if unused. Positions of bridges follow the written chain, without caps; N, C: chain ends. Non-standard residues stand in square brackets, D forms with d. Residues, ends and D or L forms follow the SMILES beside them. Groups on a side chain read outwards from the residue. *: point of attachment. Cholesteryloxycarbonyl = CC(C)CCC[C@@H](C)[C@H]1CC[C@H]2[C@@H]3CC=C4C[C@@H](OC(=O)*)CC[C@]4(C)[C@H]3CC[C@]12C; Cholyl = C[C@H](CCC(=O)*)[C@H]1CC[C@H]2[C@@H]3[C@H](O)C[C@@H]4C[C@H](O)CC[C@]4(C)[C@H]3C[C@H](O)[C@]12C; Lithocholoyl = C[C@H](CCC(=O)*)[C@H]1CC[C@H]2[C@@H]3CC[C@@H]4C[C@H](O)CC[C@]4(C)[C@H]3CC[C@]12C; Trp(1-CH2CO2Me) = COC(=O)Cn1cc(C[C@H](N)C(=O)O)c2ccccc21; X29 = CN(C)C(=O)Cn1cc(C[C@H](N[*:1])C(=O)[*:2])c2ccccc21; Trp(1-CH2COOH) = N[C@@H](Cc1cn(CC(=O)O)c2ccccc12)C(=O)O; Hyp = O=C(O)[C@@H]1C[C@@H](O)CN1; NMeNle = CCCC[C@H](NC)C(=O)O; NMeA = CN[C@@H](C)C(=O)O; Dab = NCC[C@H](N)C(=O)O; Dap = NC[C@H](N)C(=O)O

The target of the first test is T1, PD-1/PD-L1 (Homo sapiens, UniProt Q9NZQ7).
T1 construct: TVMV protease site (C); made in house; host or cells: HEK293T cells
T1 sequence (Q9NZQ7 18-239): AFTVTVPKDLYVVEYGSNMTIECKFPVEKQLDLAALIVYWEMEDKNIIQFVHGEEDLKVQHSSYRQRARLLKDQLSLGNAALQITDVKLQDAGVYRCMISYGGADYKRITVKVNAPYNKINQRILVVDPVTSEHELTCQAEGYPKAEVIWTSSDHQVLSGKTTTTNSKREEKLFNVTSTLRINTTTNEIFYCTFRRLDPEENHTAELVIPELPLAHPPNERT
As to the kind of experiment: PD-1/PD-L1 Homogenous Time-Resolved Fluorescence (HTRF) binding assay. The following applies: HTRF IC50, PD-L1-His 10 nM, PD-1-Ig 20 nM. From the text: The ability of the compounds of formula (I) to bind to PD-L1 was investigated using a PD-1/PD-L1 Homogenous Time-Resolved Fluorescence (HTRF) binding assay.
The interaction of PD-1 and PD-L1 can be assessed using soluble, purified preparations of the extracellular domains of the two proteins. The PD-1 and PD-L1 protein extracellular domains were expressed as fusion proteins with detection tags, for PD-1, the tag was the Fc portion of Immunoglobulin (PD-1-Ig) and for PD-L1 it was the 6 histidine motif (PD-L1-His). All binding studies were performed in an HTRF assay buffer consisting of dPBS supplemented with 0.1% […] bovine serum albumin and 0.05% (v/v) Tween-20. For the h/PD-L1-His binding assay, inhibitors were pre-incubated with PD-L1-His (10 nM final) for 15 m in 4 μl of assay buffer, followed by addition of PD-1-Ig (20 nM final) in 1 μl of assay buffer and further incubation for 15 m. HTRF detection was achieved using europium crypate-labeled anti-Ig (1 nM final) and allophycocyanin (APC) labeled anti-His (20 nM final). Antibodies were diluted in HTRF detection buffer and 5 μl was dispensed on top of the binding reaction. The reaction mixture was allowed to equilibrate for 30 minutes and the resulting signal (665 nm/620 nm ratio) was obtained using an EnVision fluorometer. Additional binding assays were established between the human proteins PD-1-Ig/PD-L2-His (20 & 5 nM, respectively) and CD80-His/PD-L1-Ig (100 & 10 nM, respectively).
Recombinant Proteins: Human PD-1 (25-167) with a C-terminal human Fc domain of immunoglobulin G (Ig) epitope tag [hPD-1 (25-167)-3S-IG] and human PD-L1 (18-239) with a C-terminal His epitope tag [hPD-L1(18-239)-TVMV-His] were expressed in HEK293T cells and purified sequentially by ProteinA affinity chromatography and size exclusion chromatography. Human PD-L2-His and CD80-His was obtained through commercial sources.
Table 1 lists the IC50 values for representative examples of this disclosure measured in the PD-1/PD-L1 Homogenous Time-Resolved Fluorescence (HTRF) binding assay.
(In general: In TR-FRET formats the signal depends on donor and acceptor labels being close together.)
The term IC50 denotes the concentration that inhibits the measured activity by half. Take `CCCC[C@H]1C(=O)N(C)[C@@H](CCCC)C(=O)N[C@@H](CC(C)C)C(=O)N[C@H](C(=O)NCC(N)=O)CSCC(=O)N[C@@H](Cc2ccc(O)cc2)C(=O)N(C)[C@@H](C)C(=O)N[C@@H](CC(N)=O)C(=O)N2CCC[C@H]2C(=O)N[C@@H](CNC(=O)O[C@H]2CC[C@@]3(C)C(=CC[C@H]4[C@@H]5CC[C@H]([C@H](C)CCCC(C)C)[C@@]5(C)CC[C@@H]43)C2)C(=O)N[C@@H](CC(C)C)C(=O)N2C[C@H](O)C[C@H]2C(=O)N[C@@H](Cc2c[nH]c3ccccc23)C(=O)N[C@@H](CCN)C(=O)N[C@@H](Cc2cn(CC(=O)O)c3ccccc23)C(=O)N1C` [Example 1012] ({CH2CO}-Y[NMeA]NP[Dap](Cholesteryloxycarbonyl)L[Hyp]W[Dab][Trp(1-CH2COOH)][NMeNle][NMeNle]LCG-NH2; thioether N-14): the IC50 worked out at 0.13 µM.

Staying with this test, now noted: PD-L1-His 10 nM, PD-1-Ig 20 nM; read-out: HTRF IC50.
For the molecule `CCCC[C@H]1C(=O)N(C)[C@@H](CCCC)C(=O)N[C@@H](CC(C)C)C(=O)N[C@H](C(=O)NCC(N)=O)CSCC(=O)N[C@@H](Cc2ccc(O)cc2)C(=O)N(C)[C@@H](C)C(=O)N[C@@H](CC(N)=O)C(=O)N2CCC[C@H]2C(=O)N[C@@H](CNC(=O)CNC(=O)CC[C@@H](C)[C@H]2CC[C@H]3[C@@H]4[C@H](O)C[C@@H]5C[C@H](O)CC[C@]5(C)[C@H]4C[C@H](O)[C@]23C)C(=O)N[C@@H](CC(C)C)C(=O)N2C[C@H](O)C[C@H]2C(=O)N[C@@H](Cc2c[nH]c3ccccc23)C(=O)N[C@@H](CCN)C(=O)N[C@@H](Cc2cn(CC(=O)N(C)C)c3ccccc23)C(=O)N1C` [Example 1008] ({CH2CO}-Y[NMeA]NP[Dap]([Gly-Cholyl])L[Hyp]W[Dab][X29][NMeNle][NMeNle]LCG-NH2; thioether N-14), the IC50 was determined as 0.014 µM.

`CCCC[C@H]1C(=O)N(C)[C@@H](CCCC)C(=O)N[C@@H](CC(C)C)C(=O)N[C@H](C(=O)NCC(N)=O)CSCC(=O)N[C@@H](Cc2ccc(O)cc2)C(=O)N(C)[C@@H](C)C(=O)N[C@@H](CC(N)=O)C(=O)N2CCC[C@H]2C(=O)N[C@@H](CNC(=O)CC[C@@H](C)[C@H]2CC[C@H]3[C@@H]4CC[C@@H]5C[C@H](O)CC[C@]5(C)[C@H]4CC[C@]23C)C(=O)N[C@@H](CC(C)C)C(=O)N2C[C@H](O)C[C@H]2C(=O)N[C@@H](Cc2c[nH]c3ccccc23)C(=O)N[C@@H](CCN)C(=O)N[C@@H](Cc2cn(CC(=O)O)c3ccccc23)C(=O)N1C` [Example 1009] ({CH2CO}-Y[NMeA]NP[Dap](Lithocholoyl)L[Hyp]W[Dab][Trp(1-CH2COOH)][NMeNle][NMeNle]LCG-NH2; thioether N-14): the IC50 is 0.017 µM.

As for `CCCC[C@H]1C(=O)N(C)[C@@H](CCCC)C(=O)N[C@@H](CC(C)C)C(=O)N[C@H](C(=O)NCC(N)=O)CSCC(=O)N[C@@H](Cc2ccc(O)cc2)C(=O)N(C)[C@@H](C)C(=O)N[C@@H](CC(N)=O)C(=O)N2CCC[C@H]2C(=O)N[C@@H](CNC(=O)CC[C@@H](C)[C@H]2CC[C@H]3[C@@H]4[C@H](O)C[C@@H]5C[C@H](O)CC[C@]5(C)[C@H]4C[C@H](O)[C@]23C)C(=O)N[C@@H](CC(C)C)C(=O)N2C[C@H](O)C[C@H]2C(=O)N[C@@H](Cc2c[nH]c3ccccc23)C(=O)N[C@@H](CCN)C(=O)N[C@@H](Cc2cn(CC(=O)OC)c3ccccc23)C(=O)N1C` [Example 1011] ({CH2CO}-Y[NMeA]NP[Dap](Cholyl)L[Hyp]W[Dab][Trp(1-CH2CO2Me)][NMeNle][NMeNle]LCG-NH2; thioether N-14), the IC50 is 0.0063 µM.
